This note sets out measurements from PubChem BioAssay (NCI).

Some test systems named below: COLO 205 colon; ACHN renal; SR leukemia; OVCAR-5 ovarian; PC-3 prostate; HL-60(TB) leukemia; NCI-H460 lung; SF-268 CNS; T-47D breast; SK-MEL-28 melanoma; BT-549 breast; MDA-N; NCI-H226 lung; KM12 colon; NCI/ADR-RES ovarian; OVCAR-4 ovarian; HOP-62 NSCLC; HS 578T breast; EKVX NSCLC.
Common to all, as to assay: NCI-60 cell line screen, 48 h

The structures appear in SMILES notation.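 These data come from cells grown in 96-well plates and exposed to compound for 48 hours at five concentrations. TGI marks complete inhibition of growth.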

Regarding `COc1cc(S(=O)(=O)Nc2nc(-c3ccc(N4C(=O)/C(=C/C=C/c5ccccc5)N=C4c4ccccc4)cc3)cs2)ccc1Cl`, the TGI in the experiment on COLO 205 colon, with ACHN renal, in the experiment with SR leukemia, in the experiment with OVCAR-5 ovarian, with PC-3 prostate and with HL-60(TB) leukemia was more than 100 µM each time. The TGI with NCI-H460 lung was more than 100 µM; in the experiment on SF-268 CNS it was more than 100 µM; in the experiment with T-47D breast, more than 100 µM; in the experiment on SK-MEL-28 melanoma, more than 100 µM; with BT-549 breast, 94 µM; in the experiment on MDA-N it was more than 100 µM. For the same compound, the TGI in the experiment on NCI-H226 lung, in the experiment on KM12 colon, in the experiment with NCI/ADR-RES ovarian, in the experiment on OVCAR-4 ovarian, with HOP-62 NSCLC and with HS 578T breast was more than 100 µM throughout.

Turning to `CCCCCCc1ccc(C(=O)NO)cc1`, the TGI with COLO 205 colon is more than 100 µM; in the experiment on ACHN renal, 88.5 µM; in the experiment on SR leukemia, 39.2 µM; with OVCAR-5 ovarian, more than 100 µM; with PC-3 prostate, more than 100 µM; in the experiment on HL-60(TB) leukemia it was 53.8 µM. The TGI in the experiment with NCI-H460 lung was 72.3 µM; with EKVX NSCLC, more than 100 µM; with SF-268 CNS, more than 100 µM; with T-47D breast, 82.9 µM; with SK-MEL-28 melanoma, more than 100 µM; in the experiment on BT-549 breast it was more than 100 µM. Also, the TGI with MDA-N is more than 100 µM; in the experiment on NCI-H226 lung it was more than 100 µM; in the experiment on KM12 colon it was more than 100 µM; in the experiment on NCI/ADR-RES ovarian it was 51.9 µM; in the experiment on OVCAR-4 ovarian it was 84.4 µM; in the experiment with HOP-62 NSCLC it was more than 100 µM. The compound also yielded a TGI in the experiment with HS 578T breast of more than 100 µM.

In the case of `CCOP(=O)(OCC)/C(=C/NC(=S)c1ccncc1)C(=O)OC`, the TGI in the experiment on COLO 205 colon, in the experiment with ACHN renal, with SR leukemia, in the experiment with OVCAR-5 ovarian, in the experiment on PC-3 prostate and in the experiment with HL-60(TB) leukemia was more than 100 µM throughout. Besides, the TGI in the experiment on NCI-H460 lung, with EKVX NSCLC, in the experiment on SF-268 CNS, in the experiment on T-47D breast, in the experiment with BT-549 breast and in the experiment with MDA-N was more than 100 µM in each case. The TGI in the experiment on NCI-H226 lung, in the experiment with KM12 colon, with NCI/ADR-RES ovarian, in the experiment on OVCAR-4 ovarian, in the experiment with HOP-62 NSCLC and in the experiment on HS 578T breast was more than 100 µM each time.

`CC1CN=C(Nc2ccccc2)S1` (centres undefined): the TGI with COLO 205 colon, in the experiment on ACHN renal, in the experiment on SR leukemia, with OVCAR-5 ovarian, in the experiment on PC-3 prostate and in the experiment on HL-60(TB) leukemia was more than 100 µM in each case. Besides, the TGI with NCI-H460 lung, in the experiment with EKVX NSCLC, in the experiment with SF-268 CNS, in the experiment with T-47D breast, with SK-MEL-28 melanoma and in the experiment on BT-549 breast was more than 100 µM each time. In addition, the TGI in the experiment with MDA-N, in the experiment with NCI-H226 lung, in the experiment on KM12 colon, with NCI/ADR-RES ovarian, in the experiment with HOP-62 NSCLC and in the experiment with HS 578T breast was more than 100 µM each time.

As to `CC(O)c1cc2c(s1)C(=O)c1ccsc1C2=O` (centres undefined), the TGI in the experiment with COLO 205 colon was 3.23 µM; in the experiment with ACHN renal, 0.267 µM; in the experiment with SR leukemia, 0.392 µM; with OVCAR-5 ovarian it was 0.3 µM; in the experiment on PC-3 prostate it was 0.158 µM; in the experiment on HL-60(TB) leukemia, 0.0791 µM. For the same compound, the TGI in the experiment with EKVX NSCLC was 0.551 µM; in the experiment on SF-268 CNS, 0.679 µM; in the experiment on T-47D breast, 1.42 µM; in the experiment with SK-MEL-28 melanoma it was 0.0328 µM; in the experiment with BT-549 breast, 0.23 µM; in the experiment on MDA-N it was 0.0275 µM. For the same compound, the TGI in the experiment with NCI-H226 lung amounted to 1.32 µM; with KM12 colon, 1.2 µM; with NCI/ADR-RES ovarian, 0.743 µM; with OVCAR-4 ovarian, 0.533 µM; in the experiment with HOP-62 NSCLC, 0.283 µM; in the experiment on HS 578T breast, 0.566 µM.

As to `CCN(CC)CCC(=O)c1ccc(C)cc1`, the TGI is 63.1 µM with COLO 205 colon; 41 µM in the experiment on ACHN renal; 82.6 µM in the experiment on SR leukemia; 31.4 µM with OVCAR-5 ovarian; more than 100 µM with PC-3 prostate; more than 100 µM in the experiment on HL-60(TB) leukemia. The TGI is more than 100 µM in the experiment on NCI-H460 lung; 86.8 µM with EKVX NSCLC; more than 100 µM with SF-268 CNS; 39.8 µM in the experiment on T-47D breast; 29.9 µM with SK-MEL-28 melanoma; 37.6 µM with BT-549 breast. The TGI with MDA-N was 51.6 µM; with NCI-H226 lung it was 63.6 µM; with NCI/ADR-RES ovarian, 65.7 µM; in the experiment with OVCAR-4 ovarian, 50.1 µM; in the experiment on HOP-62 NSCLC, more than 100 µM; with HS 578T breast, more than 100 µM.
